Literature values in US11701338B2, “Use of gTso thal in manufacturing medicament for promotion of MS-275 to cross blood-brain barrier” (Northwest Institute of Plateau Biology, Chinese Academy of …, priority 2020, dated 2023).

Settings: after oral or intravenous administration

Structure (SMILES): Nc1ccccc1NC(=O)c1ccc(CNC(=O)OCc2cccnc2)cc1 [MS-275]
- share of the dosage of MS-275 that crosses the BBB into the brain: around 15%
